{"source": "patent US10568327B1", "about": "“Method of controlling phytopathogenic diseases on turfgrass” (Syngenta Crop Protection LLC, priority 2012, dated 2020)", "origin": "cited, not measured here", "test_system": "creeping bentgrass greens", "note": "Like-named read-outs stand apart in the source and are kept apart here."}
{"smiles": "CSC(=O)c1cccc2nnsc12", "note": "[acibenzolar-S-methyl, S-methyl benzo[1,2,3]thiadiazole-7-carbothioate]", "values": [{"measurement": "Turf quality", "setting": "6.1 grams/1,000 square meters, with reduced chlorothalonil rates, creeping bentgrass greens, Fry et al. 2006", "result": "below standard"}, {"measurement": "Turf quality", "setting": "with chlorothalonil at lower than recommended rate, creeping bentgrass putting greens, Zhang et al. 2005", "result": "unacceptable"}]}
